Values after ≈ are worked out from the molar mass of the structure shown.
What was measured:
MDA-MB-231 [1] = experiment: Cytotoxicity against human MDA-MB-231 cells cultured as 2.5D cells assessed as increase in dead cell count at 125 ug/ml incubated for 12 hrs by tryphan blue based analysis (Rvb=7700x10^3No_unit); assay type: functional; settings: dose 125 µg/ml
MDA-MB-231 [2] = experiment: Cytotoxicity against human MDA-MB-231 cells cultured as 3D cells assessed as cell death measured after 12 hrs relative to control; assay type: functional
MDA-MB-231 [3] = experiment: Cytotoxicity against human MDA-MB-231 cells cultured as 2.5D cells assessed as cell death at 125 ug/ml measured after 12 hrs by OCT/imaris based analysis relative to control; assay type: functional; settings: dose 125 µg/ml
[4] = Therapeutic index, ratio of IC50 for cytotoxicity against human dermal fibroblast cultured as 2D cells to IC50 for cytotoxicity against human MDA-MB-231 cultured as 2D cells; assay type: toxicity, cell-based; settings: human dermal fibroblasts versus MDA-MB-231 cells, 2D culture, read-out: TI
[5] = Therapeutic index, ratio of HC50 for Sheep RBC to IC50 for cytotoxicity against human MDA-MB-231 cultured as 2.5D cells; assay type: toxicity, cell-based; settings: sheep (RBC) and human (MDA-MB-231), sheep red blood cells versus MDA-MB-231 cells, 2.5D culture; read-out: TI
[6] = Selectivity ratio of IC50 for human MDA-MB-231 cultured as 2.5D cells to IC50 for human MDA-MB-231 cultured as 2D cells; assay type: functional
MDA-MB-231 [7] = experiment: Cytotoxicity against human MDA-MB-231 cultured as 2.5D cells assessed as inhibition of cell growth measured after 12 hrs by CellTiter-Glo luciferase detection reagent based assay; assay type: functional; settings: MDA-MB-231, 12 h
MDA-MB-231 [8] = experiment: Cytotoxicity against human MDA-MB-231 cells cultured as 3D cells assessed as cell death at 125 ug/ml measured after 12 hrs by tryphan blue based analysis relative to control; assay type: functional; settings: dose 125 µg/ml
MDA-MB-231 [9] = experiment: Cytotoxicity against human MDA-MB-231 cultured as 3D cells assessed as inhibition of cell growth measured after 12 hrs by CellTiter-Glo luciferase detection reagent based assay; assay type: functional; settings: MDA-MB-231, 12 h
MDA-MB-231 [10] = experiment: Cytotoxicity against human MDA-MB-231 cells cultured as 3D cells assessed as increase in dead cell count at 125 ug/ml incubated for 12 hrs by tryphan blue based analysis (Rvb=11000x10^3No_unit); assay type: functional; settings: dose 125 µg/ml
[11] = Selectivity ratio of IC50 for human MDA-MB-231 cultured as 3D cells to IC50 for human MDA-MB-231 cultured as 2D cells; assay type: functional
[12] = Cytotoxicity against human dermal fibroblast cultured as 2D cells assessed as reduction in cell viability measured after 12 hrs by CCK8 assay; assay type: toxicity, cell-based; settings: human dermal fibroblasts (NHDF), 2D culture
Jurkat = experiment: Antiproliferative activity against human Jurkat T cells assessed as inhibition of cell growth at 25 ug/ml relative to control; assay type: functional
[13] = Therapeutic index, ratio of HC50 for Sheep RBC to IC50 for cytotoxicity against human MDA-MB-231 cultured as 3D cells; assay type: toxicity, cell-based; settings: sheep (RBC) and human (MDA-MB-231), sheep red blood cells versus MDA-MB-231 cells, 3D culture; read-out: TI
MDA-MB-231 [14] = experiment: Cytotoxicity against human MDA-MB-231 cultured as 2D cells assessed as inhibition of cell growth measured after 12 hrs by CCK8 assay; assay type: functional, cell-based; settings: MDA-MB-231, 12 h
MDA-MB-231 [15] = experiment: Cytotoxicity against human MDA-MB-231 cells cultured as 3D cells assessed as cell death at 125 ug/ml measured after 12 hrs by OCT/imaris based analysis relative to control; assay type: functional; settings: dose 125 µg/ml
[16] = Hemolytic activity in Sheep RBC assessed as hemolysis at 31 ug/ml by microplate reader analysis relative to control; assay type: toxicity, cell-based, Ovis aries, Erythrocyte; settings: sheep red blood cells (erythrocytes), at 31 µg/mL, read-out: Activity
[17] = Therapeutic index, ratio of HC50 for sheep RBC to IC50 for cytotoxicity against human MDA-MB-231 cultured as 2D cells; assay type: toxicity, cell-based; settings: sheep (RBC) and human (MDA-MB-231), sheep red blood cells versus MDA-MB-231 cells, 2D culture; read-out: TI
[18] = Therapeutic index, ratio of IC50 for cytotoxicity against human dermal fibroblast cultured as 2.5 D cells to IC50 for cytotoxicity against human MDA-MB-231 cultured as 2.5 D cells; assay type: toxicity, cell-based; settings: read-out: TI
[19] = Therapeutic index, ratio of IC50 for cytotoxicity against human dermal fibroblast cultured as 3D cells to IC50 for cytotoxicity against human MDA-MB-231 cultured as 3D cells; assay type: toxicity, cell-based; settings: human dermal fibroblasts versus MDA-MB-231 cells, 3D culture, read-out: TI
MDA-MB-231 [20] = experiment: Cytotoxicity against human MDA-MB-231 cells cultured as 3D cells assessed as decrease in live cell count at 125 ug/ml incubated for 12 hrs by tryphan blue based analysis (Rvb=20900x10^3No_unit); assay type: functional; settings: dose 125 µg/ml
MDA-MB-231 [21] = experiment: Cytotoxicity against human MDA-MB-231 cells cultured as 2.5D cells assessed as cell death measured after 12 hrs relative to control; assay type: functional
MDA-MB-231 [22] = experiment: Cytotoxicity against human MDA-MB-231 cells cultured as 2.5D cells assessed as decrease in live cell count at 125 ug/ml incubated for 12 hrs by tryphan blue based analysis (Rvb=22000x10^3No_unit); assay type: functional; settings: dose 125 µg/ml
[23] = Hemolytic activity against Sheep RBC assessed as hemolysis by microplate reader analysis; assay type: toxicity, cell-based, Ovis aries, Erythrocyte; settings: sheep red blood cells (erythrocytes)
MDA-MB-231 [24] = experiment: Cytotoxicity against human MDA-MB-231 cells cultured as 2.5D cells assessed as cell death at 125 ug/ml measured after 12 hrs by tryphan blue based analysis relative to control; assay type: functional; settings: dose 125 µg/ml
MDA-MB-231 [25] = experiment: Cytotoxicity against human MDA-MB-231 cells cultured as 3D cells assessed as cell death at 62.5 ug/ml measured after 12 hrs by OCT/imaris based analysis relative to control; assay type: functional; settings: dose 62.5 µg/ml
MDA-MB-231 [26] = experiment: Cytotoxicity against human MDA-MB-231 cells cultured as 2.5D cells assessed as cell death at 62.5 ug/ml measured after 12 hrs by tryphan blue based analysis relative to control; assay type: functional; settings: dose 62.5 µg/ml
MDA-MB-231 [27] = experiment: Cytotoxicity against human MDA-MB-231 cells cultured as 3D cells assessed as increase in dead cell count at 62.5 ug/ml incubated for 12 hrs by tryphan blue based analysis (Rvb=11000x10^3No_unit); assay type: functional; settings: dose 62.5 µg/ml
MDA-MB-231 [28] = experiment: Cytotoxicity against human MDA-MB-231 cells cultured as 2.5D cells assessed as cell death at 62.5 ug/ml measured after 12 hrs by OCT/imaris based analysis relative to control; assay type: functional; settings: dose 62.5 µg/ml
MDA-MB-231 [29] = experiment: Cytotoxicity against human MDA-MB-231 cells cultured as 3D cells assessed as decrease in live cell count at 62.5 ug/ml incubated for 12 hrs by tryphan blue based analysis (Rvb=20900x10^3No_unit); assay type: functional; settings: dose 62.5 µg/ml
MDA-MB-231 [30] = experiment: Cytotoxicity against human MDA-MB-231 cells cultured as 2.5D cells assessed as increase in dead cell count at 62.5 ug/ml incubated for 12 hrs by tryphan blue based analysis (Rvb=7700x10^3No_unit); assay type: functional; settings: dose 62.5 µg/ml
MDA-MB-231 [31] = experiment: Cytotoxicity against human MDA-MB-231 cells cultured as 3D cells assessed as cell death at 62.5 ug/ml measured after 12 hrs by tryphan blue based analysis relative to control; assay type: functional; settings: dose 62.5 µg/ml
MDA-MB-231 [32] = experiment: Cytotoxicity against human MDA-MB-231 cells cultured as 2.5D cells assessed as decrease in live cell count at 62.5 ug/ml incubated for 12 hrs by tryphan blue based analysis (Rvb=22000x10^3No_unit); assay type: functional; settings: dose 62.5 µg/ml
[33] = Growth inhibition of human dermal fibroblast cultured as 2D cells by tryphan blue based analysis; assay type: toxicity, cell-based; settings: human dermal fibroblasts (NHDF), 2D culture

Compound | Activity (MDA-MB-231 [2]) [%] | selectivity ratio [4] | selectivity ratio [5] | Ratio IC50 [6] | IC50 (MDA-MB-231 [7]) [µg/mL] | IC50 (MDA-MB-231 [9]) [µg/mL] | Ratio IC50 [11] | IC50 at 12 h [12] [µg/mL] | selectivity ratio [13] | IC50 (MDA-MB-231 [14]) [µg/mL] | hemolysis at 31 ug/ml [16] [%] | selectivity ratio [17] | selectivity ratio [18] | selectivity ratio [19] | Activity (MDA-MB-231 [21]) [%] | HC50 [23] [µg/mL] | further results
CCOC(=O)CCCCCCC/C=C\CCCCCCC(C)O[C@@H]1O[C@H](COC(C)=O)[C@@H](O)[C@H](O)[C@H]1O[C@@H]1O[C@H](COC(C)=O)[C@@H](O)[C@H](O)[C@H]1O (stereo not given in full) | 88.2 | 1.59 | 1.04 | 4.5 | 120 (≈ 163 µM) | 130 (≈ 177 µM) | 5 | 43 (≈ 58.5 µM) | 0.96 | 27 (≈ 36.7 µM) | > 10 | 4.63 | 0.36 | 0.33 | 80.2 | 125 | Activity (MDA-MB-231 [1]): 16317 10^3No_unit; Activity (MDA-MB-231 [3]): 70%; Activity (MDA-MB-231 [8]): 70%; Activity (MDA-MB-231 [10]): 22917 10^3No_unit; inhibition at 25 µg/mL (Jurkat): 90%; Activity (MDA-MB-231 [15]): 70%; Activity (MDA-MB-231 [20]): 3667 10^3No_unit; Activity (MDA-MB-231 [22]): 5500 10^3No_unit; Activity (MDA-MB-231 [24]): 70%
CC(=O)OC[C@H]1O[C@H]2OC(C)CCCCCC/C=C\CCCCCCCC(=O)O[C@H]3[C@H](O)[C@@H](O)[C@H](O[C@@H]2[C@@H](O)[C@@H]1O)O[C@@H]3COC(C)=O (stereo not given in full) | 89.3 | 2.21 | 3.29 | 3 | 38 (≈ 55.2 µM) | 33 (≈ 47.9 µM) | 2.5 | 31 (≈ 45 µM) | 3.79 | 14 (≈ 20.3 µM) | > 10 | 8.93 | 0.82 | 0.94 | 88.4 | 125 | Activity (MDA-MB-231 [25]): 70%; Activity (MDA-MB-231 [26]): 70%; Activity (MDA-MB-231 [27]): 17783 10^3No_unit; Activity (MDA-MB-231 [28]): 70%; Activity (MDA-MB-231 [29]): 3300 10^3No_unit; Activity (MDA-MB-231 [30]): 13933 10^3No_unit; Activity (MDA-MB-231 [31]): 70%; Activity (MDA-MB-231 [32]): 3117 10^3No_unit
COc1cccc2c1C(=O)c1c(O)c3c(c(O)c1C2=O)C[C@@](O)(C(=O)CO)C[C@@H]3O[C@H]1C[C@H](N)[C@H](O)[C@H](C)O1 [DOXORUBICIN] |  |  |  |  |  |  |  |  |  |  |  |  |  |  |  |  | GI50 [33]: 30 µg/mL (≈ 55.2 µM)
